Source: US6620790B2, “Isolated arachidonic acid-binding heteromer and its use in cosmetics and pharmaceutics” (Societe L'Oreal S.A., priority 1909, dated 2003)

B1: MRP8 (migration inhibitory factor related protein 8) (other)
chain: MLTELEKALNSIIDVYHKYSLIKGNFHAVYRDDLKKLLETECPQYIRKKGADVWFKELDINTDGAVNFQEFLILVIKMGVAAHKKSHEESHKE
notes: Sub-unit of the heteromer, seen by SDS-PAGE of the purified native complex; also called MRP8 sub-unit

Legend:
[1] = tested on: E-FABP (epidermal fatty acid-binding protein) of keratinocytes; details: Siegenthaler, G. et al. (1994) Biochem. J. 302, 363-371; cited from earlier work
[2] = molecular target: T1, arachidonic acid-binding heteromer (non-covalent complex of two MRP8 sub-units, SEQ ID NOs: 1-2, and one MRP14 sub-unit, SEQ ID NOs: 3-4) (Homo sapiens, UniProt P05109+P06702); test: binding of linoleic acid to the heteromer (method not given)
T1 construct: no tag
T1 sequence (P05109 1-93): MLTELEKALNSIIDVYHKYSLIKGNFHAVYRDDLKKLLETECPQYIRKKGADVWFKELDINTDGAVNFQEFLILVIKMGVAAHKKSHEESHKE
T1 sequence (P06702 1-114): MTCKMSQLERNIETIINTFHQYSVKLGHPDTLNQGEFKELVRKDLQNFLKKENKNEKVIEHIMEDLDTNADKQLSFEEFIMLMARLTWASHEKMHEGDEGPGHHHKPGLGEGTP

[3] = molecular target: T2, arachidonic acid-binding heteromer (non-covalent complex of two MRP8 sub-units, SEQ ID NOs: 1-2, and one MRP14 sub-unit, SEQ ID NOs: 3-4; approx. 34 kDa), isola (Homo sapiens, UniProt P05109+P06702); test: dissociation constant by carbon-dextran technique with radiolabelled ligand, Scatchard plot; details: comparison with E-FABP (Siegenthaler et al. 1994)
T2 construct: conventional steps of protein extraction from biological tissues, more specifically from skin tissues; from tissue; host or cells: psoriasis scales (human keratinocytes), membrane pellet extracted with KCl buffer
T2 sequence (P05109 1-93) 1: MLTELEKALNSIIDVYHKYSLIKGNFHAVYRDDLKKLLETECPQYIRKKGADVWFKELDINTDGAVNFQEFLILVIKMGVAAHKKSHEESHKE
T2 sequence (P05109 1-93) 2: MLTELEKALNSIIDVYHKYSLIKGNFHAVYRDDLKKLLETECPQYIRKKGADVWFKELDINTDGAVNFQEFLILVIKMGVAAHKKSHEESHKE
T2 sequence (P06702 2-114 limits assumed): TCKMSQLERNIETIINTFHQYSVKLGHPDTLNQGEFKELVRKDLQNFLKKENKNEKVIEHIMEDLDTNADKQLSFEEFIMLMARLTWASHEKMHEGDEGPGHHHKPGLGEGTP
Description: These dissociation constants are obtained by carrying out measurements using the carbon-dextran technique. This technique is as follows: aliquot portions of 0.5 μg of heteromer in solution in 100 μl of Tris buffer (50 mM Tris/HCl, 25 mM NaCl, 2.5 mM EDTA, 1 mM DTT at pH 7.5) containing 0.5% of gelatin and 1% of DMSO are incubated for 1 hour at 37° C. in the presence of increasing quantities of radiolabelled ligand, i.e, 0-10 μM for the oleic acid and the arachidonic acid. Then, each aliquot portion is treated with 50 μl a mixture of carbon-dextran T40® (5% and 0.05% respectively) at 0° C. for 10 minutes, then centrifuged at 10000 g and the radioactivity of the supernatant is measured. A saturation curve is established, and the Kd is calculated using the Scatchard plot.
(§1) More particularly, this heteromer consists of two MRP8 sub-units and one MRP14 sub-unit. These two proteins, MRP8 and MRP14, are in particular described in the Odink et al., (1987) Nature 330, 80-82 publication.
The purification process of the heteromer that is implemented consists specifically of the following steps: approximately 5 g of psoriasis scales are homogenized in 15 ml of Tris/HCl buffer using a homogenizer (Polytron) then, the mixture is centrifuged at 100000 g for 1 hour at 4° C. The pellet is collected and suspended in 5 ml of the same buffer and centrifuged at 10000 g. The supernatant is eliminated. […]

[4] = molecular target: T2, arachidonic acid-binding heteromer (non-covalent complex of two MRP8 sub-units, SEQ ID NOs: 1-2, and one MRP14 sub-unit, SEQ ID NOs: 3-4; approx. 34 kDa), isola; test: binding of radiolabelled ligand to heteromer by gel filtration (Superose 12, HPLC)
Description: Indeed, when a determined quantity of heteromer in solution is incubated in the presence of 600 nM of radiolabelled arachidonic acid, then analyzed through a filtration column over gel [(Superose 12) balanced with a Tris/HCl buffer containing 0.2M NaCl and connected to a HPLC], the radioactive peak that co-elutes elutes at 34 kDa and corresponds to the radiolabelled arachidonic acid-heteromer complex is 1.5 times greater than if the experiment were performed in the same conditions, but with 600 nM of radiolabelled oleic acid.
as §1
The purification process of the heteromer that is implemented consists specifically of the following steps: approximately 5 g of psoriasis scales are homogenized in 15 ml of Tris/HCl buffer using a homogenizer (Polytron) then, the mixture is centrifuged at 100000 g for 1 hour at 4° C. The pellet is collected and suspended in 5 ml of the same buffer and centrifuged at 10000 g. The supernatant is eliminated. This washing operation is carried out two more times. […]

[5] = molecular target: T3, MRP14 (migration inhibitory factor related protein 14) (human, UniProt P06702 1-114); test: gel filtration (34 kDa, non-denaturing) against SDS-PAGE of the purified heteromer
T3 construct: Sub-unit of the heteromer, seen by SDS-PAGE of the purified native complex; also called MRP14 sub-unit
T3 sequence: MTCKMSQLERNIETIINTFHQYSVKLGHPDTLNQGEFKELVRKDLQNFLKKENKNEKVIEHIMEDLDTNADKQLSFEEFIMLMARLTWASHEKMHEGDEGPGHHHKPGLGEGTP
Description: The fractions that co-elute with the radioactive peak are gathered, dialyzed through a 20 mM Tris/HCl buffer, pH of 8.0 and the solution is concentrated. This solution is passed through a […] ion exchange column (Resource Q) balanced with the last buffer. The elution in the form of a gradient is performed with this Tris buffer containing 0.5M of NaCl. In the same way as above, the column has been standardized and only the proteins that co-elute with the radioactive peak are gathered, dialyzed through a 100 mM sodium phosphate buffer with a pH of 7.0 and concentrated The last purification step is carried out on a filtration column (Superose 12) balanced with the phosphate buffer. The protein peak that elutes at 34 kDa corresponds to the purified heteromer.

Molecule	affinity for fatty acids (in words) [1]	other results
CC/C=C\C/C=C\C/C=C\CCCCCCCC(=O)O [linolenic acid]	strong affinity	–
CCCCC/C=C\C/C=C\CCCCCCCC(=O)O [linoleic acid]	strong affinity	binding (in words) [2]: binds
CCCCCCCCCCCCCCCCCC(=O)O [stearic acid]	strong affinity	–
CCCCCCCC/C=C\CCCCCCCC(=O)O [oleic acid]	strong affinity	dissociation constant in relation to oleic acid compared with that of E-FABP for the same ligand [3]: less than that of the E-FABP
CCCCC/C=C\C/C=C\C/C=C\C/C=C\CCCC(=O)O [arachidonic acid]	weak or nonexistent affinity	radioactive peak of ligand-heteromer complex, ratio arachidonic acid to oleic acid ([4]; 600 nM radiolabelled arachidonic acid vs 600 nM radiolabelled oleic acid, peak at 34 kDa): 1.5 times; quantity of arachidonic acid bound relative to oleic acid ([4]; up to, general statement): up to 1.5 times
B1	–	binding result [5]: binds
